Values after ≈ are worked out from the molar mass of the structure shown. Where two headings read alike, the source gives them in different places.
How the values were obtained:
Experiment in all cases: MIC, broth micro-dilution technique (CLSI)
[1] = tested on: Methicillin Resistant Staphylococcus aureus strain USA 300 (NRS384); assay type: cell-based; conditions: for MIC: Staphylococcus aureus, 22 h, read-out: MIC (μg/mL) S. aureus
Protocol: (§1) In vitro antimicrobial activity of each compound was determined by measuring minimal inhibitor concentrations (MICs) using the broth micro-dilution technique as approved by the Clinical and Laboratory Standards Institute (CLSI) (Methods for Dilution Antimicrobial Susceptibility Tests for Bacteria that Grow Aerobically; Approved Standard—Eighth Edition. CLSI document M07-A8. Wayne, Pa.: Clinical and Laboratory Standards; 2009). Antibacterial activity was measured against three strains of bacteria: a Methicillin Resistant Staphylococcus aureus strain USA 300 (NRS384); a MRSA COL (NRS100), another Methicillin Resistant Staphylococcus aureus strain; and a strain of Escherichia coli MC4100 harboring the IMP4213, which results in increased outer-membrane permeability (B Martin and Silhavy T. Imp/OstA is required for cell envelope biogenesis in Escherichia coli. (2002) Molecular Microbiology, 45(5), 1289-1302). Cells were inoculated onto plates of Trypyticase Soy Agar or Luria Agar respectively and grown at 35° C. for 20 hours. Inocula suspensions were prepared by scraping cells into 1 ml of testing media (cation adjusted Mueller Hinton Broth supplemented with 0.002% v/v Tween-80) and diluting to a final OD600 nm of 0.01.
(§2) Test compounds were prepared in DMSO at a concentration of 10 mg/ml. These compound stocks were diluted into testing media at a concentration of 64 μg/ml and serial 2-fold dilutions were made in the same media, in 96-well U bottom microtiter dishes, for a total of 10 compound concentrations (Table 1). In modified protocols (Table 2), compound stocks were diluted into testing media at a concentration of 4 μg/mL and serial 2-fold dilutions were made in the same media, in 96-well U bottom microtiter dishes, for a total of 10 compound concentrations. Inocula suspensions were added to the 2-fold serial dilutions of test compounds to a final density of OD OD600 nm of 0.0005 and incubated at 35° C. for 22 hours. […] The results from the protocol starting from a concentration of 64 µg/mL are listed in Table 1 and the results from the modified protocol are shown in Table 2.

MRSA COL (NRS100) = assay type: cell-based, Staphylococcus aureus; conditions: for MIC: Staphylococcus aureus, 22 h, read-out: MIC (μg/mL) (COL)
Protocol: as §1, §2

[2] = tested on: Escherichia coli MC4100 harboring the IMP4213; assay type: cell-based; conditions: 35° C., 22 hours; for MIC: Escherichia coli, 22 h
Protocol: as §1, §2

[3] = Table 2 modified protocol: serial 2-fold dilutions starting from 4 μg/mL, 35° C., 22 hours
[4] = read-out: MIC (μg/mL) E. coli, Table 1 protocol: serial 2-fold dilutions starting from 64 μg/ml
[5] = Table 1 protocol: serial 2-fold dilutions starting from 64 μg/ml, 35° C., 22 hours

Structure (SMILES) | MIC [1] [µg/mL] | MIC [2, 4] [µg/mL] | MIC [1, 5] [µg/mL] | MIC (MRSA COL (NRS100); [5]) [µg/mL] | other results
CCCCCCCCCCCCCC(=O)N[C@@H](CCN)C(=O)N(C)[C@@H]1C(=O)N[C@@H](C)C(=O)N[C@H](C(=O)O)Cc2ccc(OCCN)c(c2)-c2cc1ccc2OCCN [Compound 299] | 0.19 (≈ 0.235 µM) | – | – | – | MIC (MRSA COL (NRS100)): 0.031 µg/mL (≈ 0.0383 µM)
CCCCCCCCCCNCCC(=O)N[C@@H](CCCCN)C(=O)N(C)[C@@H]1C(=O)N[C@@H](C)C(=O)N[C@H](C(=O)N[C@@H](C)C(=O)c2nnn[nH]2)Cc2ccc(OCCN)c(c2)-c2cc1ccc2OCCN.O=CO [Compound 271] | – | – | – | – | MIC (μg/mL) E. coli ([2]; Table 2 modified protocol: serial 2-fold dilutions starting from 4 μg/mL): 4 µg/mL; MIC (μg/mL) S. aureus [1, 3]: 0.047 µg/mL; MIC (μg/mL) (COL) (MRSA COL (NRS100); [3]): 0.016 µg/mL
C[C@@H]1NC(=O)[C@@H](N(C)C(=O)[C@H](CCCCN)NC(=O)c2ccc(-c3ccc(Cl)cc3)cc2)c2ccc(O)c(c2)-c2cc(ccc2O)C[C@@H](C(=O)N[C@@H](C)C(=O)C(F)(F)C(N)=O)NC1=O [Compound 228] | – | 15 (≈ 16.6 µM) | 5.3 (≈ 5.86 µM) | 2 (≈ 2.21 µM) | –
C[C@@H]1NC(=O)[C@@H](N(C)C(=O)[C@H](CCCCN)NC(=O)c2ccc(-c3ccc(Cl)cc3)cc2)c2ccc(O)c(c2)-c2cc(ccc2O)C[C@@H](C(=O)N[C@@H](C)C(=O)N2CCCC23CCNC3=O)NC1=O (some centres unmarked) [Compound 161] | – | – | – | – | MIC (μg/mL) E. coli ([2]; Table 1 protocol: serial 2-fold dilutions starting from 64 μg/ml): 64 µg/mL (≈ 67.4 µM); MIC (μg/mL) S. aureus [1, 5]: 64 µg/mL (≈ 67.4 µM); MIC (μg/mL) (COL) (MRSA COL (NRS100); [5]): 32 µg/mL (≈ 33.7 µM)
CC(NC(=O)[C@@H]1Cc2ccc(O)c(c2)-c2cc(ccc2O)[C@H](N(C)C(=O)[C@H](CCCCN)NC(=O)c2ccc(-c3ccc(Cl)cc3)cc2)C(=O)N[C@@H](C)C(=O)N1)C(=O)c1ncccn1 (some centres unmarked) [Compound 194] | – | 8 (≈ 8.99 µM) | 8 (≈ 8.99 µM) | 4 (≈ 4.5 µM) | –
CCCCCCCCCCNCCS(=O)(=O)N[C@@H](CCCN)C(=O)N(C)[C@@H]1C(=O)N[C@@H](C)C(=O)N[C@H](C(=O)N[C@@H](C)C(C)=O)Cc2ccc(O)c(c2)-c2cc1ccc2O [Compound 219] | 0.35 (≈ 0.415 µM) | > 64 | – | – | MIC (MRSA COL (NRS100)): 0.13 µg/mL (≈ 0.154 µM)
CCCCCCCCCCNCCC(=O)N[C@@H](CCCCN)C(=O)N(C)[C@@H]1C(=O)N[C@@H](C)C(=O)N[C@H](C(=O)N[C@@H](C)C(=O)N2CCC[C@H]2C(N)=O)Cc2ccc(O)c(c2)-c2cc1ccc2OCCN [Compound 190] | – | 32 (≈ 33.2 µM) | 1.7 (≈ 1.76 µM) | 0.25 (≈ 0.26 µM) | –
CCCCc1ccc(-c2ccc(C(=O)N[C@@H](CCCN)C(=O)N(C)[C@@H]3C(=O)N[C@@H](C)C(=O)N[C@H](C(N)=O)Cc4ccc(OCCN)c(c4)-c4cc3ccc4OCCN)cc2)cc1 [Compound 335] | 0.19 (≈ 0.224 µM) | – | – | – | MIC ([2]; read-out: MIC (μg/mL) E. coli, Table 2 modified protocol: serial 2-fold dilutions starting from 4 μg/mL): 0.13 µg/mL (≈ 0.153 µM); MIC (MRSA COL (NRS100)): 0.063 µg/mL (≈ 0.0742 µM)
C[C@@H]1NC(=O)[C@@H](N(C)C(=O)[C@H](CCCCN)NC(=O)c2ccc(-c3ccc(Cl)cc3)cc2)c2ccc(O)c(c2)-c2cc(ccc2O)C[C@@H](C(=O)N[C@@H](C)C(=O)N2C[C@@H](O)C[C@H]2C(N)=O)NC1=O [Compound 177] | – | 64 (≈ 68.1 µM) | 16 (≈ 17 µM) | 4 (≈ 4.26 µM) | –
C[C@@H]1NC(=O)[C@@H](N(C)C(=O)[C@H](CCCCN)NC(=O)c2ccc(-c3ccc(Cl)cc3)cc2)c2ccc(O)c(c2)-c2cc(ccc2O)C[C@@H](C(=O)N[C@@H](C)C(=O)c2ccn[nH]2)NC1=O [Compound 235] | – | 32 (≈ 36.5 µM) | 4 (≈ 4.56 µM) | 2 (≈ 2.28 µM) | –
CCCCCCCCCCNCCC(=O)N[C@@H](CCCCN)C(=O)N(C)[C@@H]1C(=O)N[C@@H](C)C(=O)N[C@H](C(=O)O)Cc2ccc(O)c(c2)-c2cc1ccc2OCCN [Compound 113] | 9.5 (≈ 11.9 µM) | 25 (≈ 31.4 µM) | – | – | MIC (MRSA COL (NRS100)): 2 µg/mL (≈ 2.51 µM)
C[C@@H]1NC(=O)[C@@H](N(C)C(=O)[C@H](CCCCN)NC(=O)c2ccc(-c3ccc(Cl)cc3)cc2)c2ccc(O)c(c2)-c2cc(ccc2O)C[C@@H](C(=O)N[C@@H](C)C(=O)C(=O)N[C@@H]2CCNC2=O)NC1=O [Compound 142] | – | 16 (≈ 17.1 µM) | 64 (≈ 68.3 µM) | 16 (≈ 17.1 µM) | –
C[C@H](NCC(=O)[C@H](C)NC(=O)[C@@H]1Cc2ccc(O)c(c2)-c2cc(ccc2O)[C@H](N(C)C(=O)[C@H](CCCCN)NC(=O)c2ccc(-c3ccc(Cl)cc3)cc2)C(=O)N[C@@H](C)C(=O)N1)C(N)=O [Compound 125] | 32 (≈ 35.1 µM) | – | – | – | MIC (MRSA COL (NRS100)): 8 µg/mL (≈ 8.78 µM)
C[C@@H]1NC(=O)[C@@H](N(C)C(=O)[C@H](CCCCN)NC(=O)c2ccc(-c3ccc(Cl)cc3)cc2)c2ccc(O)c(c2)-c2cc(ccc2O)C[C@@H](C(=O)N[C@@H](C)C(=O)N2CCC[C@H]2C(=O)NCC(N)=O)NC1=O [Compound 178] | – | – | 32 (≈ 32.6 µM) | 16 (≈ 16.3 µM) | –
CC(=O)[C@H](C)NC(=O)[C@@H]1Cc2ccc(O)c(c2)-c2cc(ccc2OCCN2CCOCC2)[C@H](N(C)C(=O)[C@H](CCCCN)NC(=O)c2ccc(-c3ccc(Cl)cc3)cc2)C(=O)N[C@@H](C)C(=O)N1 [Compound 203] | – | – | 23 (≈ 24.5 µM) | 8 (≈ 8.52 µM) | –
CCOC(=O)CCC(=O)[C@H](C)NC(=O)[C@@H]1Cc2ccc(O)c(c2)-c2cc(ccc2O)[C@H](N(C)C(=O)[C@H](CCCCN)NC(=O)c2ccc(-c3ccc(Cl)cc3)cc2)C(=O)N[C@@H](C)C(=O)N1 [Compound 146] | 16 (≈ 17.6 µM) | – | – | – | MIC (MRSA COL (NRS100)): 8 µg/mL (≈ 8.78 µM)
C[C@@H]1NC(=O)[C@@H](N(C)C(=O)[C@H](CCCCN)NC(=O)c2ccc(-c3ccc(Cl)cc3)cc2)c2ccc(O)c(c2)-c2cc(ccc2O)C[C@@H](C(=O)NCC(=O)N2CC[C@H](O)[C@H]2C(N)=O)NC1=O [Compound 180] | – | 64 (≈ 69.2 µM) | 64 (≈ 69.2 µM) | – | –
CCCCCCCC(=O)NCCC(=O)N[C@@H](CCCCN)C(=O)N(C)[C@@H]1C(=O)N[C@@H](C)C(=O)N[C@H](C(=O)N[C@@H](C)C(=O)CCl)Cc2ccc(O)c(c2)-c2cc1ccc2O [Compound 107] | 64 (≈ 76 µM) | > 64 | – | – | –
C[C@H](NC(=O)[C@@H]1Cc2ccc(O)c(c2)-c2cc(ccc2O)[C@H](N(C)C(=O)[C@H](CCCCN)NC(=O)c2ccc(-c3ccc(Cl)cc3)cc2)C(=O)N[C@@H](C)C(=O)N1)C(=O)COC(=O)c1ncccn1 [Compound 122] | 1.4 (≈ 1.48 µM) | 32 (≈ 33.8 µM) | – | – | –
CONC(=O)[C@@H]1CCCN1C(=O)[C@H](C)NC(=O)[C@@H]1Cc2ccc(O)c(c2)-c2cc(ccc2O)[C@H](N(C)C(=O)[C@H](CCCCN)NC(=O)c2ccc(-c3ccc(Cl)cc3)cc2)C(=O)N[C@@H](C)C(=O)N1 [Compound 185] | 45 (≈ 47.2 µM) | 64 (≈ 67.1 µM) | – | – | –
C[C@@H]1NC(=O)[C@@H](N(C)C(=O)[C@H](CCCCN)NC(=O)c2ccc(-c3ccc(Cl)cc3)cc2)c2ccc(O)c(c2)-c2cc(ccc2O)C[C@@H](C(=O)N[C@@H](C)C(=O)N2CCC[C@H]2CO)NC1=O [Compound 157] | > 64 | 45 (≈ 49.4 µM) | – | – | –
C[C@@H]1NC(=O)[C@@H](N(C)C(=O)[C@H](CCCCN)NC(=O)c2ccc(-c3ccc(Cl)cc3)cc2)c2ccc(O)c(c2)-c2cc(cc(Br)c2O)C[C@@H](C(=O)O)NC1=O [Compound 165] | 45 (≈ 53.9 µM) | 11 (≈ 13.2 µM) | – | – | –
C[C@H](NC(=O)[C@@H]1Cc2ccc(O)c(c2)-c2cc(ccc2O)[C@H](N(C)C(=O)[C@H](CCCCN)NC(=O)c2ccc(-c3ccc(Cl)cc3)cc2)C(=O)N[C@@H](C)C(=O)N1)C(=O)CCC(N)=O [Compound 148] | 64 (≈ 72.5 µM) | – | – | – | MIC (MRSA COL (NRS100)): 32 µg/mL (≈ 36.3 µM)
CC[C@H](NC(=O)[C@@H]1Cc2ccc(O)c(c2)-c2cc(ccc2O)[C@H](N(C)C(=O)[C@H](CCCCN)NC(=O)c2ccc(-c3ccc(Cl)cc3)cc2)C(=O)N[C@@H](C)C(=O)N1)C(C)=O [Compound 127] | > 64 | 64 (≈ 76.2 µM) | – | – | –
